The subject of this test is L1210 leukemia ip in BDF1 mice, survival T/C. Description: NCI In Vivo Anticancer Drug Screen. Data for tumor model L1210 Leukemia (intraperitoneal) in B6D2F1 (BDF1) mice. Particulars: endpoint: mean survival time, higher = longer survival. The essentials:
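Transplanted-tumor mice were given test agent; controls received vehicle only. Survival readings from the two groups were divided (treated over control).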

Setting [1] is: dose: 100.0 mg/kg/injection, schedule: Q04DX003 (ip), vehicle: saline with Tween-80.
[2] abbreviates: dose: 200.0 mg/kg/injection, schedule: Q04DX003 (ip), vehicle: saline with Tween-80.
Where [3] appears, read: dose: 400.0 mg/kg/injection, schedule: Q04DX003 (ip), vehicle: saline with Tween-80.
[4] abbreviates: dose: 100.0 mg/kg/injection, schedule: Q01DX009 (ip), vehicle: saline with Tween-80.
Setting [5] is: dose: 200.0 mg/kg/injection, schedule: Q01DX009 (ip), vehicle: saline with Tween-80.
Setting [6] is: dose: 400.0 mg/kg/injection, schedule: Q01DX009 (ip), vehicle: saline with Tween-80.
[7] abbreviates: dose: 100.0 mg/kg/injection, schedule: Q04DX002 (ip), vehicle: saline with Tween-80.
Setting [8] is: dose: 200.0 mg/kg/injection, schedule: Q04DX002 (ip), vehicle: saline with Tween-80.
Where [9] appears, read: dose: 100.0 mg/kg/injection, schedule: Q04DX003 (ip), vehicle: Klucel (hydroxypropylcellulose) (HPC).
[10] abbreviates: dose: 200.0 mg/kg/injection, schedule: Q04DX003 (ip), vehicle: Klucel (hydroxypropylcellulose) (HPC).
Setting [11] is: dose: 400.0 mg/kg/injection, schedule: Q04DX003 (ip), vehicle: Klucel (hydroxypropylcellulose) (HPC).

Structures are written as SMILES. Values joined by “and” are separate entries in the source; they are usually repeats but may differ in a detail not shown here. Equal entries are not always repeated. Toxic doses and inconclusive results are not listed.

As to `O=C1CC(c2ccc(OCN(CCCl)CCCl)cc2)CC(=O)C1CN(CCCl)CCCl` (centres undefined), the T/C by setting is: (dose: 0.2 mg/kg/injection, schedule: Q01DX009 (ip), vehicle: carboxymethylcellulose (CMC)) 95 % of control; (dose: 0.37 mg/kg/injection, schedule: Q01DX009 (ip), vehicle: saline) 122 % of control; (dose: 0.39 mg/kg/injection, schedule: Q01DX009 (ip), vehicle: carboxymethylcellulose (CMC)) 102 % of control; (dose: 0.5 mg/kg/injection, schedule: Q01DX009 (ip), vehicle: carboxymethylcellulose (CMC)) 101 % of control; (dose: 0.9 mg/kg/injection, schedule: Q01DX009 (ip), vehicle: carboxymethylcellulose (CMC)) 107 % of control; (dose: 1.0 mg/kg/injection, schedule: Q01DX009 (ip), vehicle: carboxymethylcellulose (CMC)) 104 % of control. The T/C (dose: 1.4 mg/kg/injection, schedule: Q01DX009 (ip), vehicle: carboxymethylcellulose (CMC)) was 87 % of control; the T/C (dose: 2.0 mg/kg/injection, schedule: Q01DX001 (ip), vehicle: saline) is 193 % of control; the T/C (dose: 2.0 mg/kg/injection, schedule: Q01DX009 (ip), vehicle: carboxymethylcellulose (CMC)) is 114 % of control; the T/C (dose: 3.0 mg/kg/injection, schedule: Q01DX009 (ip), vehicle: saline) is 106 % of control and 90 % of control; the T/C (dose: 4.0 mg/kg/injection, schedule: Q01DX001 (ip), vehicle: saline) was 104 % of control and 109 % of control; the T/C (dose: 6.0 mg/kg/injection, schedule: Q04DX003 (ip), vehicle: saline) is 123 % of control. Besides, the T/C reads like this: (dose: 6.6 mg/kg/injection, schedule: Q01DX009 (ip), vehicle: carboxymethylcellulose (CMC)) 157 % of control; (dose: 7.5 mg/kg/injection, schedule: Q01DX001 (ip), vehicle: saline) 122 % of control; (dose: 8.58 mg/kg/injection, schedule: Q01DX001 (ip), vehicle: carboxymethylcellulose (CMC)) 124 % of control; (dose: 10.0 mg/kg/injection, schedule: Q01DX009 (ip), vehicle: carboxymethylcellulose (CMC)) 93 % of control; (dose: 13.0 mg/kg/injection, schedule: Q01DX001 (ip), vehicle: carboxymethylcellulose (CMC)) 114 % of control; (dose: 19.5 mg/kg/injection, schedule: Q01DX001 (ip), vehicle: carboxymethylcellulose (CMC)) 118 % of control. Also, the T/C by setting is: (dose: 0.1 micrograms/kg/injection, schedule: Q01DX001 (ip), vehicle: saline) 100 % of control; (dose: 0.2 micrograms/kg/injection, schedule: Q01DX001 (ip), vehicle: saline) 102 % of control; (dose: 0.5 micrograms/kg/injection, schedule: Q01DX001 (ip), vehicle: saline) 100 % of control; (dose: 1.0 micrograms/kg/injection, schedule: Q01DX001 (ip), vehicle: saline) 100 % of control.

For the compound `[CH3][Sb]([CH3])([CH3])([O]C(=O)C(Cl)Cl)[O]C(=O)C(Cl)Cl`, the T/C is 105 % of control under setting [1], 108 % of control under setting [2] and 103 % of control under setting [3].

Regarding `Cc1nc(NC(=O)CBr)[nH]c(=O)c1CCC(C)C`, the T/C is, setting by setting: under setting [1], 107 % of control; under setting [2], 100 % of control; under setting [3], 88 % of control.

On to `COc1cccc(NC(=O)NCCCl)c1`, for which the T/C (dose: 12.5 mg/kg/injection, schedule: Q01DX009 (ip), vehicle: saline with Tween-80) was 96 % of control; the T/C (dose: 25.0 mg/kg/injection, schedule: Q01DX009 (ip), vehicle: saline with Tween-80) was 86 % of control; the T/C (dose: 50.0 mg/kg/injection, schedule: Q01DX009 (ip), vehicle: saline with Tween-80) is 90 % of control.

As for `O=C1C(c2ccccc2)=c2c(c3ccccc3c3ccccc23)=C1c1ccccc1`, the T/C reads like this: (dose: 50.0 mg/kg/injection, schedule: Q01DX001 (ip), vehicle: carboxymethylcellulose (CMC)) 103 % of control and 100 % of control; (dose: 100.0 mg/kg/injection, schedule: Q01DX001 (ip), vehicle: carboxymethylcellulose (CMC)) 100 % of control and 97 % of control; under setting [4], 96 % of control; (dose: 200.0 mg/kg/injection, schedule: Q01DX001 (ip), vehicle: carboxymethylcellulose (CMC)) 100 % of control and 97 % of control; under setting [5], 90 % of control; (dose: 400.0 mg/kg/injection, schedule: Q01DX001 (ip), vehicle: carboxymethylcellulose (CMC)) 94 % of control. For the same compound, the T/C under setting [6] was 93 % of control.

With `CC1(c2ccco2)C(=O)NC(=O)N1C(=O)CCl` (centres undefined), the T/C under setting [4] was 112 % of control; the T/C under setting [1] was 96 % of control; the T/C under setting [5] is 101 % of control; the T/C under setting [2] is 103 % of control; the T/C under setting [3] is 101 % of control.

In the case of `O=S1(=O)C=C(Cl)C2C3C=CC(C3)C21` (centres undefined), the T/C reads like this: (dose: 0.62 mg/kg/injection, schedule: Q01DX009 (ip), vehicle: acetone) 101 % of control; (dose: 1.25 mg/kg/injection, schedule: Q01DX009 (ip), vehicle: acetone) 104 % of control; (dose: 2.5 mg/kg/injection, schedule: Q04DX003 (ip), vehicle: acetone) 90 % of control; (dose: 5.0 mg/kg/injection, schedule: Q04DX003 (ip), vehicle: acetone) 92 % of control; (dose: 10.0 mg/kg/injection, schedule: Q01DX001 (ip), vehicle: acetone) 97 % of control.

In the case of `COc1cccc(NC(=S)Nc2ccc(O)cc2)c1`, the T/C (dose: 100.0 mg/kg/injection, schedule: Q04DX002 (ip), vehicle: Klucel (hydroxypropylcellulose) (HPC)) is 99 % of control; the T/C (dose: 200.0 mg/kg/injection, schedule: Q04DX002 (ip), vehicle: Klucel (hydroxypropylcellulose) (HPC)) is 101 % of control; the T/C (dose: 400.0 mg/kg/injection, schedule: Q04DX002 (ip), vehicle: Klucel (hydroxypropylcellulose) (HPC)) was 104 % of control.

`O=C(Nc1ccc(Cl)c(Cl)c1)c1ccc(Cl)c(Cl)c1`: the T/C (dose: 50.0 mg/kg/injection, schedule: Q04DX002 (ip), vehicle: saline with Tween-80) is 94 % of control; the T/C under setting [7] was 91 % of control; the T/C under setting [8] is 91 % of control.

On to `CC1(C(=O)O)OCCO1`, for which the T/C was 94 % of control under setting [4] and 90 % of control under setting [5].

For the compound `COc1ccc([N+](=O)[O-])cc1C(F)(F)F`, the T/C was 96 % of control under setting [4], 97 % of control under setting [5] and 93 % of control under setting [6].

As to `Cc1ccc(NS(=O)(=O)c2ccc(F)cc2)cc1Cl`, the T/C is 92 % of control (dose: 100.0 mg/kg/injection, schedule: Q01DX009 (ip), vehicle: Klucel (hydroxypropylcellulose) (HPC)); 100 % of control under setting [9]; 95 % of control (dose: 200.0 mg/kg/injection, schedule: Q01DX009 (ip), vehicle: Klucel (hydroxypropylcellulose) (HPC)); 97 % of control under setting [10]; 95 % of control (dose: 400.0 mg/kg/injection, schedule: Q01DX009 (ip), vehicle: Klucel (hydroxypropylcellulose) (HPC)); 97 % of control under setting [11].

As for `CC(=O)Nc1ccc(C(N)=O)cn1`, the T/C is 98 % of control (dose: 8.0 mg/kg/injection, schedule: Q01DX009 (ip), vehicle: carboxymethylcellulose (CMC)); 98 % of control (dose: 16.0 mg/kg/injection, schedule: Q01DX009 (ip), vehicle: carboxymethylcellulose (CMC)); 98 % of control (dose: 32.0 mg/kg/injection, schedule: Q01DX009 (ip), vehicle: carboxymethylcellulose (CMC)); 94 % of control (dose: 64.0 mg/kg/injection, schedule: Q01DX001 (ip), vehicle: carboxymethylcellulose (CMC)); 118 % of control (dose: 64.0 mg/kg/injection, schedule: Q01DX009 (ip), vehicle: carboxymethylcellulose (CMC)); 92 % of control (dose: 128.0 mg/kg/injection, schedule: Q01DX001 (ip), vehicle: carboxymethylcellulose (CMC)). In addition, the T/C (dose: 256.0 mg/kg/injection, schedule: Q01DX001 (ip), vehicle: carboxymethylcellulose (CMC)) is 97 % of control and the T/C (dose: 512.0 mg/kg/injection, schedule: Q01DX001 (ip), vehicle: carboxymethylcellulose (CMC)) is 92 % of control.

In the case of `C=CCOc1ccc(C=O)cc1OCC=C`, the T/C was 101 % of control under setting [9], 96 % of control under setting [10] and 101 % of control under setting [11].

As for `CC1CC(C)OC2(CCCc3ccccc32)O1` (centres undefined), the T/C is, setting by setting: under setting [7], 104 % of control; under setting [8], 100 % of control; (dose: 400.0 mg/kg/injection, schedule: Q04DX002 (ip), vehicle: saline with Tween-80) 104 % of control.

The values are drawn from PubChem BioAssay AID248 (DTP/NCI, 2004).
